# Assay results published in patent publication US5120752A, “Cyclopropyl derivative lipoxygenase inhibitors” (Abbott Laboratories, priority 1990, dated 1992).
# How the values were obtained:
# leukotriene biosynthesis = test: Inhibition of leukotriene biosynthesis in vivo after oral administration, rat peritoneal anaphylaxis model; conditions: 100 μmol/kg oral (gavage), 1 h before antigen challenge, read-out: % Inhibition of Leukotrienes at 100 μmol/kg oral dose
# Description: Inhibition of the biosynthesis of leukotrienes in vivo after oral administration of representative test compounds of this invention was determined using a rat peritoneal anaphylaxis model in a similar manner as that described by Young and coworkers (Young, P. R.; Dyer, R. D.; Carter, G. W. Fed. Proc., Fed. Am. Soc. Exp. Biol. 1985, 44, 1185). In this model rats were injected intraperitoneally (ip) with rabbit antibody to bovine serum albumin (BSA) and three hours later injected ip with BSA to induce an antgen-antibody response. Rats were sacrificed 15 minutes after this challenge and the peritoneal fluids were collected and analyzed for leukotriene levels. Test compounds were administered by gavage one hour prior to the antigen challenge. Percent inhibition values were determined by comparing the treatment group to the mean of the control group. The results of this assay, for representative compounds of the present invention, at an oral dose level of […] are presented in Table 2, and at an oral dose of […] in Table 3.
# [1] = test system: LTB4 biosynthesis in human whole blood; test: Inhibition of calcium ionophore-induced LTB4 biosynthesis in human whole blood; format: cell-based; conditions: A23187 50 μM, 15 min preincubation, read-out: Inhibition of Leukotriene Biosynthesis IC50
# Description: Inhibition of leukotriene biosynthesis was evaluated in an assay, involving calcium ionophore-induced LTB4 biosynthesis expressed by human whole blood. Heparinized (20 U/mL) human blood (0.3 mL) was preincubated with test compound or vehicle for 15 min. at 37° C. Eicosanoid biosynthesis was initiated by adding calcium ionophore (A23187) in DMSO to a final concentration of 50 μM and terminated after 30 min. by rapid cooling of the blood in an ice bath and centrifuging at 3° C. for 10 min at 2500×g. The plasma was mixed with 4 volumes of methanol and allowed to stand for at least 30 min. at 3° C. prior to centrifuging at 1800×g for 10 min. The level of LTB4 in aliquots of the methanol-plasma extract was analyzed by radio-immunoassay or enyme-immunoassay techniques.
smiles,measurement,setting,value
"NC(=O)N(O)C[C@@H]1C[C@H]1c1ccoc1 (relative stereo) [Example 193, N-(1-trans-(2-(3-furanyl)cyclopropyl)methyl)-N-hydroxyurea]",inhibition in vivo at 100 µmol/kg,leukotriene biosynthesis,93%
same,IC50,[1],230 nM
